Assay results published in ChEMBL document CHEMBL4402560, “Sarco/Endoplasmic Reticulum Calcium ATPase Inhibitors: Beyond Anticancer Perspective” (J Med Chem, 2020).

Test system: Mycobacterium tuberculosis variant bovis
Assay: Antimycobacterial activity against Mycobacterium bovis
Assay type: functional, organism-based

Structure (SMILES) | IC50
C/C=C(/C)C(=O)O[C@@H]1C[C@H]2C(=C1C)[C@@H]1OC(=O)[C@@](C)(O)[C@@]1(O)[C@@H](OC(=O)CCCCn1cc([C@]3(O)CC[C@H]4[C@@H]5CCc6cc(OC)ccc6[C@H]5CC[C@@]43C)nn1)C[C@]2(C)OC(C)=O | 10.6 µM
C/C=C(\C)C(=O)O[C@@H]1C[C@H]2C(=C1C)[C@@H]1OC(=O)[C@@](C)(O)[C@@]1(O)[C@@H](OC(=O)[C@H](C)CC)C[C@@]2(C)OC(C)=O | 27.3 µM
